Results as given in ChEMBL document CHEMBL1629473, “Convenient synthesis and biological profile of 5-amino-substituted 1,2,4-oxadiazole derivatives” (Eur J Med Chem, 2010).

What was measured:
Rattus norvegicus = test: Antiinflammatory activity in Fisher 344 rat assessed as inhibition of carrageenan-induced paw edema at 0.01 mmol/kg, ip measured 3.5 hrs after carrageenan challenge relative to control; type: functional; set-up: scale not given: the % may be the effect or the level left
[1] = Induction of NO release in phosphate buffer pH 7.4 containing 0.5 mM thiophenol assessed as nitrite level at 100 uM after 60 mins by Griess assay; type: physicochemical; settings: pH 7.4, 1 h
[2] = system: Radical scavenging activity; test: Antioxidant activity assessed as DPPH free radical scavenging activity at 100 uM after 20 mins; type: functional
[3] = system: Radical scavenging activity; test: Antioxidant activity assessed as DPPH free radical scavenging activity at 100 uM after 60 mins; type: functional
[4] = Induction of NO release in phosphate buffer pH 7.4 containing 1 mM L-cysteine assessed as nitrite level at 100 uM after 60 mins by Griess assay; type: physicochemical; settings: pH 7.4, 1 h
[5] = Induction of NO release in phosphate buffer pH 7.4 containing 5 mM L-cysteine assessed as nitrite level at 100 uM after 60 mins by Griess assay; type: physicochemical; settings: pH 7.4, 1 h
[6] = Induction of NO release in phosphate buffer pH 7.4 containing 0.5 mM L-cysteine assessed as nitrite level at 100 uM after 60 mins by Griess assay; type: physicochemical; settings: pH 7.4, 1 h
[7] = target: Lipoxygenase (Glycine max) (UniProt Q39829); test: Inhibition of soybean lipoxygenase at 100 uM by UV spectrophotometry; set-up: scale not given: the % may be the effect or the level left
[8] = system: Radical scavenging activity; test: Antioxidant activity assessed as DPPH free radical scavenging activity at 50 uM after 60 mins; type: functional
[9] = system: Radical scavenging activity; test: Antioxidant activity assessed as DPPH free radical scavenging activity at 50 uM after 20 mins; type: functional

Row | SMILES | Activity [1] | Activity [5] | Activity [7] | Activity [2] | Activity [3] | further results
1 | Cc1ccc(-c2noc(NC3CCCCC3)n2)cc1 |  |  |  |  |  | Activity (Rattus norvegicus): 33%
2 | COc1ccc2c(c1)c(CC(=O)O)c(C)n2C(=O)c1ccc(Cl)cc1 [INDOMETHACIN] |  |  |  |  |  | Activity (Rattus norvegicus): 47%
3 | CCCc1noc(NC(C)C)n1 |  |  |  | 7% | 7% | 
4 | Cc1ccc(-c2noc(NC(C)C)n2)cc1 |  |  |  |  | 18% | 
5 | N/C(=N\O)c1cccc([N+](=O)[O-])c1 |  |  | 32% | 7% | 15% | Activity (Rattus norvegicus): 26%
6 | CC(Cc1ccc(O)c(O)c1)C(C)Cc1ccc(O)c(O)c1 (configuration not stated) |  |  | 83.7% | 84% | 91% | Activity [8]: 81%; Activity [9]: 77%
7 | NC(Cc1ccc(Cl)cc1)=NO | 3% |  |  |  |  | 
8 | N/C(=N\O)c1ccccc1 |  |  |  | 19% | 30% | Activity [9]: 8%
9 | CC(C)Nc1nc(C2CCCCC2)no1 |  |  |  | 8% | 11% | 
10 | N/C(Cc1ccc(Cl)cc1)=N\O |  |  | 19% |  | 16% | Activity (Rattus norvegicus): 47%
11 | O=[N+]([O-])c1ccc(-c2noc(NC3CCCCC3)n2)cc1 |  |  | > 5% |  |  | 
12 | CCNc1nc(-c2ccc([N+](=O)[O-])cc2)no1 |  |  |  |  | 9% | 
13 | Cc1ccc(/C(N)=N/O)cc1 |  | 8% |  | 21% | 26% | Activity [8]: 14%; Activity [9]: 15%; Activity (Rattus norvegicus): 41%
14 | N/C(=N\O)c1ccc([N+](=O)[O-])cc1 |  |  | 24% | 9% | 18% | 
15 | O=[N+]([O-])c1ccc(Cc2noc(NC3CCCCC3)n2)cc1 |  |  |  | 7% | 7% | 
16 | Clc1ccc(Cc2noc(NC3CCCCC3)n2)cc1 |  |  |  | 7% | 7% | 

Now from value to compound, other results behind:

Row | Activity [1] | Activity [5] | Activity [7] | SMILES | Activity [2] | Activity [3] | further results
17 | 7.5% |  |  | c1ccc(Cc2noc(NC3CCCCC3)n2)cc1 | 9% | 9% | 
18 |  | 14% |  | COc1ccc(-c2noc(NC3CCCCC3)n2)cc1 |  |  | Activity [4]: 2%
19 | 21% |  |  | Cc1ccc(-c2noc(NCCCN(C)C)n2)cc1 | 6% | 8% | Activity [6]: 7.5%
20 | 3% | 3% | 74% | O=[N+]([O-])c1cccc(-c2noc(NC3CCCCC3)n2)c1 | 11% | 11% | Activity (Rattus norvegicus): 40%
21 | 39% | 12% |  | CC(=O)N(c1nc(Cc2ccc(Cl)cc2)no1)C1CCCCC1 | 2% | 5% | Activity [4]: 18%; Activity [6]: 27.5%
22 |  | 19% | 38% | c1ccc(-c2noc(NC3CCCCC3)n2)cc1 |  |  | Activity [4]: 2%; Activity [6]: 4%; Activity (Rattus norvegicus): 51%
23 | 71% | 33% |  | CC(=O)N(c1nc(-c2cccc([N+](=O)[O-])c2)no1)C1CCCCC1 | 1% | 2% | Activity [4]: 33%; Activity [6]: 42.5%
24 | 47% | 8% |  | CC(=O)N(c1nc(-c2ccc([N+](=O)[O-])cc2)no1)C1CCCCC1 | 3% | 4% | Activity [4]: 8%; Activity [6]: 12%
25 | 24% |  | 67% | CN(C)CCCNc1nc(-c2ccc([N+](=O)[O-])cc2)no1 | 6% | 4% | Activity [6]: 7%
26 | 4% | 2% |  | CC(C)Nc1nc(Cc2ccc(Cl)cc2)no1 | 8% | 11% | Activity (Rattus norvegicus): 43%
27 |  | 4% |  | NC(=NO)c1cccc([N+](=O)[O-])c1 |  |  | 
28 |  |  | 25.5% | CC(=O)N(c1nc(-c2ccc(C)cc2)no1)C1CCCCC1 | 3% | 3% | 
29 | 7% |  | 88% | CC(C)Nc1nc(-c2cccc([N+](=O)[O-])c2)no1 | 6% | 8% | 
30 | 55% |  |  | CC(=O)N(c1nc(-c2cccc([N+](=O)[O-])c2)no1)C(C)C | 3% | 4% | 
31 | 6% |  |  | NC(=NO)c1ccccc1 [BENZAMIDOXIME] |  |  | Activity [6]: 2%
32 |  | 4% |  | COc1ccc(C(=N)NO)cc1 | 57% | 57% | Activity [8]: 44%; Activity [9]: 35%; Activity [4]: 5%; Activity [6]: 4%; Activity (Rattus norvegicus): 45%
